For one experiment, the system named is human CD3 T cells. As to the kind of experiment: Pen 9 western blot of antibiotic-treated human T cells. The class given is cell-based. The conditions noted are these: human T cells activated by mitogen in presence of the antibiotic. On the technique in general: Immunoblotting shows a protein as a band on a membrane.
The next experiment relates to NOD mice. The experiment can be described thus: Autoimmune diabetes in NOD mice. In kind it is in vivo, mouse. As for the experimental part: NOD mice spontaneously develop diabetes mellitus similar to type I diabetes in humans. […] The mice were followed for the development of diabetes, marked by blood sugar above 300 mg/dl on 2 measurements.
The subject of experiment [1] is experimental autoimmune encephalomyelitis (EAE) in rats. As to the kind of experiment: Actively induced EAE. The class given is in vivo, rat. Particulars: oral in drinking water from day 7 postinduction, daily dose 50 mg/kg, versus two control groups.
Experiment [2] has as its system Adjuvant Arthritis (AA) in rats. The experiment can be described thus: Adjuvant arthritis (AA). Particulars: IP 5 mg (25 mg/kg) once every 2 or 3 days from day 12, versus non-injected control. The class given is in vivo, rat. As for the experimental part:
Heat-killed Mycobacterium tuberculosis (Mt) strain H37Ra (Difco) was finely ground using a pestle and mortar, and was suspended to a final concentration of 10 mg/ml in IFA. Test rats were injected at the base of the tail with a total of 100 μl of the Mt suspension. The day of AA induction was designated as day 0. Disease severity was assessed by direct observation of all four limbs in each animal. A relative score between 0 and 4 was assigned to each limb based on the degree of joint inflammation, redness, and deformity; thus, the maximum possible score for an individual animal was 16. The results are presented as the mean±SE of total score.
To test the effects of antibiotics in vivo, active experimental autoimmune encephalomyelitis (EAE) was induced in rats as described above, and the injected rats (4 per group) were treated with oral cefuroxime axetil in the drinking water from day 7 postinduction (“Oral T Cefurox.”). One 500 mg tablet was dissolved in 500 ml of drinking water. The daily dose was 50 mg/kg, in the range of therapeutic pediatric human doses. As a control, the intravenous cefuroxime sodium preparation, which is not absorbed into the circulation, was administered orally (“Oral inj. Cefurox.”). A second control group was given water without antibiotics (“Control”). […]

The next experiment has as its system CD4+ human T cells. As to the kind of experiment: Real-time PCR verification of six genes. In kind it is cell-based. Particulars: same RNA as gene array; cefuroxime 50 μg/ml. As for the experimental part: To verify the results of the gene array, we synthesized real-time PCR primers (designed with the LightCycler probe design software (Roche)). Real-time PCR of 6 selected genes was performed using a LightCycler (Roche, Basel, Switzerland). RNA was reverse transcribed to cDNA from 1 μg of total RNA, which was then subjected to quantitative RT-PCR performed essentially according to the manufacturer's instructions. Specific primer pairs were used to amplify specific genes in the presence of 3 mM MgCl2. PCR was performed in triplicate in a total volume of 20 μl of LightCycler HotStart DNA SYBR Green I mix (Roche) containing primer and 5 μl of cDNA. […] Denaturation was performed for 15 s at 95° C., annealing was performed in 60° C., and the extension was performed at 72° C. for 20 s, with fluorescence detection at 72° C. after each cycle. After the final cycle, melting point analyses of all samples were performed within the range of 62-95° C. with continuous fluorescence detection. […]
The Human Autoimmune and Inflammatory Response Gene Array (SuperArray Bioscience corporation, Frederick, Md., USA) was used for analysis of gene expression by the T cells. […] To verify the results detected by the gene array study, a panel of six genes was designed and tested by real-time PCR: CCR4, ACVR2, JAK1, STAT4, TLR2 and NFKBIE. […]

“Also recorded” adds a separate entry of the source.

We go through 2 compounds from patent publication US9345691B2, “Beta-lactam compounds for enhancing T cell-mediated immune responses” (STEM CELL MEDICINE LTD., priority 2011, dated 2016).

For `CC1(C)S[C@@H]2[C@H](NC(=O)[C@H](N)c3ccccc3)C(=O)N2[C@H]1C(=O)O` [ampicillin], in the experiment with human CD3 T cells, the “reactivity of Pen 9 antibody with lysates of treated T cells” value was “did not bind”. Besides, the “effect on type I diabetes” value with NOD mice (NOD mice) is listed as “Inhibition of type I diabetes in NOD mice”. The incidence of diabetes in the experiment on NOD mice (NOD mice at 5.7 months, SC weekly, ampicillin 1300 μg, ceftriaxone 675 μg per mouse) was 30%.
Regarding `CO/N=C(\C(=O)N[C@@H]1C(=O)N2C(C(=O)O)=C(COC(N)=O)CS[C@H]12)c1ccco1` [cefuroxime], the “severity of actively induced EAE” value in experiment [1] was “increases the severity of actively induced EAE”. Further, the arthritis scores result in experiment [2] is “significantly more severe arthritis scores; also recorded: Exacerbation of adjuvant-induced arthritis”. In addition, the “expression of CCR4, ACVR2, JAK1, STAT4, TLR2 and NFKBIE by real-time PCR” value with CD4+ human T cells was “suppressed”.
